From patent US20230242587A1, “THYCLOTIDES” (The United States of America,as represented by the …, priority 2020, published 2023) come the findings set out here.

As a reminder, the Tm is the temperature at the midpoint of the melting transition. The term ΔTm denotes the shift of the melting midpoint relative to a reference.

One data set relates to complementary DNA. The experiment in a line: Melting temperature of PNA-DNA complexes (thermal denaturation). The class given is binding. As to conditions: for Tm: PNA bound to complementary DNA; for ΔTm: increase over aegPNA 1a-DNA duplex. An excerpt:
Although the stabilizing effect of tetrahydrofuran for PNA-DNA duplex is slightly lower than that of cyclopentane (3d vs 9 and 2a, Table 2), it strikes a balance between water solubility and binding properties and, therefore the combination of those two backbone modifications could be tailor-made to meet the specific requirements.

In data set [1] the test system is DNA with a single base mismatch. The experiment in a line: Discrimination of single base mismatches (Tm of mismatched PNA-DNA duplex). The format is binding. The note with it: for ΔTm (Tm), TC mismatch: number in brackets / ΔTm (Tm), TG mismatch: number in brackets / ΔTm (Tm), TT mismatch: number in brackets: against fully matched duplex; for ΔTm (Tm), TC mismatch: number before the brackets / ΔTm (Tm), TG mismatch: number before the brackets / ΔTm (Tm), TT mismatch: number before the brackets: PNA-DNA duplex with single base mismatch. The source says:
The sequence specificity of thyclotide 3d was examined by determining the change in Tm of a PNA-DNA duplex when a single base mismatch is present. […] The large differences in melting temperature between matched PNA-DNA duplex and mismatch PNA-DNA of thyclotide 3d allows one to control hybridization conditions to exclude the formation of mismatched PNA-DNA by adjust the temperature. Such enhanced single base pair mismatch-discrimination capability could make thyclotide 3d become a powerful tool for the detection of point-mutations and single nucleotide polymorphisms (SNPs).

Data set [2] can be described thus: CD spectra, conformation of PNA. The format is physicochemical. The procedure: The CD spectra of thyclotides 3a-3d were measured. […] However, in the case of thyclotides 3a-3d, distinct distinctive positive peaks around 220 and 269 nm and negative peaks around 204 and 247 nm were noticed. […] The amplitude of the cotton effects increases as more tetrahydrofuran modifications are introduced.

Take “G#A#T#G#T#G#A#T#A#-AEEA [2a, reference compound]”: in the data set on complementary DNA, the midpoint of thermal melting (Tm) was determined as 93.7 °C and the ΔTm came out at 51.7 °C. Also, in data set [1], the “ΔTm (Tm), TC mismatch: number in brackets” value is recorded as −30.6; the “ΔTm (Tm), TG mismatch: number in brackets” value is recorded as −20.6; the “ΔTm (Tm), TT mismatch: number in brackets” value is recorded as −22.8.
Take G*A*T*G#T#G#A*T*A*-AEEA [compound 9]: in the data set with complementary DNA, the Tm amounted to 84.5 °C and the ΔTm was 42.5 °C. In data set [1], the “ΔTm (Tm), TC mismatch: number before the brackets” value was found to be 57.7; the “ΔTm (Tm), TC mismatch: number in brackets” value is given as −27.4; the “ΔTm (Tm), TG mismatch: number in brackets” value is listed as −20.3; the “ΔTm (Tm), TT mismatch: number in brackets” value is −19.5.
Regarding G*A*T*G*T*G*A*T*A*-AEEA [3d], in the data set on complementary DNA, the melting temperature (Tm) was 77 °C and the ΔTm turned out to be 35 °C. In data set [1], the “ΔTm (Tm), TC mismatch: number before the brackets” value stood at 50.7; the “ΔTm (Tm), TC mismatch: number in brackets” value is recorded as −26.2; the “ΔTm (Tm), TG mismatch: number before the brackets” value is reported as 55.6; the “ΔTm (Tm), TG mismatch: number in brackets” value is −21.4. Further, in data set [1], the “ΔTm (Tm), TT mismatch: number before the brackets” value came out at 58.2 and the “ΔTm (Tm), TT mismatch: number in brackets” value was −18.8. For the same substance, in data set [1] (compared with aegPNA, tcypPNA 2a and mixPNA 9), the “difference in melting temperature between fully matched duplex and duplex with a single base mismatch (ΔTm), in words” value was “significantly higher than that of the corresponding aegPNA”.
For the substance GAT*GT*GAT*A-AEEA [3c], in the data set with complementary DNA, the melting temperature (Tm) came out at 54.9 °C and the ΔTm was determined as 12.9 °C.
Taken in the same sequence, the figures for GAT*GTGAT*A-AEEA [3b] were 49.7 °C and 7.7 °C.
With GATGT*GATA-AEEA [3a], in the data set with complementary DNA, the Tm came out at 44.7 °C and the ΔTm amounted to 2.7 °C.
As to GATGTGATA-AEEA [1a, reference compound], the “CD spectrum / conformation” value in data set [2] was “does not show any distinct peaks”. In addition, in the data set with complementary DNA, the Tm came to 42.0 °C. Moreover, in data set [1], the “ΔTm (Tm), TC mismatch: number before the brackets” value stood at 22.9; the “ΔTm (Tm), TC mismatch: number in brackets” value is given as −19.2; the “ΔTm (Tm), TG mismatch: number before the brackets” value turned out to be 25.4; the “ΔTm (Tm), TG mismatch: number in brackets” value is listed as −16.6. In data set [1], the “ΔTm (Tm), TT mismatch: number before the brackets” value is listed as 28.2 and the “ΔTm (Tm), TT mismatch: number in brackets” value was −13.8.
